Measured values as given in patent US7803930B2, “Antisense modulation of apolipoprotein B-expression” (Isis Pharmaceuticals, Inc., priority 2002, dated 2010).
In the oligonucleotide strings, read from the 5' end, every base follows the letter of its sugar. An asterisk marks phosphorothioate; unmarked linkages are phosphodiester. Other units and linkages are bracketed, terminal groups are in braces. A string of capitals states the bases alone. e = 2'-O-(2-methoxyethyl) (MOE); [5mC] = 5-methylcytosine; d = 2'-deoxy (DNA)

Test system: human apolipoprotein B mRNA
Assay: Inhibition of human apolipoprotein B mRNA levels in HepG2 cells, quantitative real-time PCR
Assay type: cell-based
Conditions: for % INHIB (inhibition of human apolipoprotein B mRNA levels): HepG2 cells treated with 150 nM of compound, quantitative real-time PCR; for % Change in apolipoprotein B mRNA expression: 24 hour (Table 41)
Description: The human hepatoblastoma cell line HepG2 was obtained from the American Type Culture Collection (Manassas, Va.). HepG2 cells were routinely cultured in Eagle's MEM supplemented with 10% fetal calf serum, non-essential amino acids, and 1 mM sodium pyruvate (Gibco/Life Technologies, Gaithersburg, Md.). Cells were routinely passaged by trypsinization and dilution when they reached 90% confluence. Cells were seeded into 96-well plates (Falcon-Primaria #3872) at a density of 7000 cells/well for use in RT-PCR analysis.
When cells reached 80% confluency, they were treated with oligonucleotide. For cells grown in 96-well plates, wells were washed once with 200 μL OPTI-MEM™-1 reduced-serum medium (Gibco BRL) and then treated with 130 μL of OPTI-MEM™-1 containing 3.75 μg/mL LIPOFECTIN™ (Gibco BRL) and the desired concentration of oligonucleotide. After 4-7 hours of treatment, the medium was replaced with fresh medium. Cells were harvested 16-24 hours after oligonucleotide treatment.
Quantitation of apolipoprotein B mRNA levels was determined by real-time quantitative PCR using the ABI PRISM™ 7700 Sequence Detection System (PE-Applied Biosystems, Foster City, Calif.) according to manufacturer's instructions. This is a closed-tube, non-gel-based, fluorescence detection system which allows high-throughput quantitation of polymerase chain reaction (PCR) products in real-time. As opposed to standard PCR, in which amplification products are quantitated after the PCR is completed, products in real-time quantitative PCR are quantitated as they accumulate. This is accomplished by including in the PCR reaction an oligonucleotide probe that anneals specifically between the forward and reverse PCR primers, and contains two fluorescent dyes. A reporter dye (e.g., JOE, FAM, or VIC, obtained from either Operon Technologies Inc., Alameda, Calif. or PE-Applied Biosystems, Foster City, Calif.) is attached to the 5′ end of the probe and a quencher dye (e.g., TAMRA, obtained from either Operon Technologies Inc., Alameda, Calif. or PE-Applied Biosystems, Foster City, Calif.) is attached to the 3′ end of the probe. When the probe and dyes are intact, reporter dye emission is quenched by the proximity of the 3′ quencher dye. During amplification, annealing of the probe to the target sequence creates a substrate that can be cleaved by the 5′-exonuclease activity of Taq polymerase. […] With each cycle, additional reporter dye molecules are cleaved from their respective probes, and the fluorescence intensity is monitored at regular intervals by laser optics built into the ABI PRISM™ 7700 Sequence Detection System. In each assay, a series of parallel reactions containing serial dilutions of mRNA from untreated control samples generates a standard curve that is used to quantitate the percent inhibition after antisense oligonucleotide treatment of test samples.
PCR reagents were obtained from PE-Applied Biosystems, Foster City, Calif. RT-PCR reactions were carried out by adding 25 μL PCR cocktail (1× TAQMAN™ buffer A, 5.5 mM MgCl2, 300 μM each of DATP, dCTP and dGTP, 600 μM of dUTP, 100 nM each of forward primer, reverse primer, and probe, 20 Units RNAse inhibitor, 1.25 Units AMPLITAQ GOLD™, and 12.5 Units MuLV reverse transcriptase) to 96 well plates containing 25 μL total RNA solution. The RT reaction was carried out by incubation for 30 minutes at 48° C. Following a 10 minute incubation at 95° C. to activate the AMPLITAQ GOLD™, 40 cycles of a two-step PCR protocol were carried out: 95° C. for 15 seconds (denaturation) followed by 60° C. for 1.5 minutes (annealing/extension).
Gene target quantities obtained by real time RT-PCR are normalized using either the expression level of GAPDH, a gene whose expression is constant, or by quantifying total RNA using RiboGreen™ (Molecular Probes, Inc. Eugene, Oreg.). GAPDH expression is quantified by real time RT-PCR, by being run simultaneously with the target, multiplexing, or separately. […]

[1] = Table 13 gene walk, HepG2 cells, 50 nM, averages from two experiments
[2] = Table 13 gene walk, HepG2 cells, 150 nM, averages from two experiments
[3] = Table 12, HepG2 cells, 150 nM, averages from two experiments
[4] = Table 1, HepG2 cells, 150 nM, averages from two experiments
[5] = HepG2 cells, human apolipoprotein B mRNA, oligonucleotides targeting genomic sequence SEQ ID NO 334, averages from two experiments
[6] = HepG2 cells, 50 nm oligonucleotide, variable deoxy gap position
[7] = HepG2 cells, 150 nm oligonucleotide, variable deoxy gap position

## 308629 (eA*eG*e[5mC]*e[5mC]*eT*d[5mC]*dA*dG*dT*d[5mC]*dT*dG*d[5mC]*dT*dT*e[5mC]*eG*e[5mC]*eG*e[5mC]; antisense) [compound 308629]
[1]
  % INHIB 50 nm: 77%
[2]
  % INHIB 150 nm: 95%

## 271040 (eG*eT*e[5mC]*e[5mC]*eT*dT*d[5mC]*dA*dT*dA*dT*dT*dT*dG*d[5mC]*e[5mC]*eA*eT*e[5mC]*eT; antisense) [compound 271040]
[3]
  % INHIB: 0%

## 308626 (eA*eG*eT*e[5mC]*eT*dG*d[5mC]*dT*dT*d[5mC]*dG*d[5mC]*dG*d[5mC]*d[5mC]*eT*eT*e[5mC]*eT*eG; antisense) [compound 308626]
[1]
  % INHIB 50 nm: 38%
[2]
  % INHIB 150 nm: 94%

## 301024 (eA*eA*eA*eT*eG*dA*dA*dG*dA*dT*dT*dT*d[5mC]*dT*dT*eT*eT*eA*eA*eA; antisense) [compound 301024]
Averages from two experiments
  % INHIB (inhibition of human apolipoprotein B mRNA levels): 5%

## 332782 (antisense TCAGTCTGCTTCGC; all phosphorothioate, sugars by position and methylation of C not given here; 2'-MOE wings flank a DNA gap) [compound 332782]
HepG2 cells, 10 nM
  % Change in apolipoprotein B mRNA expression: −16%
HepG2 cells, 50 nM
  % Change in apolipoprotein B mRNA expression: −16%
HepG2 cells, 150 nM
  % Change in apolipoprotein B mRNA expression: −69%

## 281590 (e[5mC]*eT*eG*e[5mC]*eT*dT*d[5mC]*d[5mC]*d[5mC]*dT*dT*d[5mC]*dT*dG*dG*eA*eA*eT*eG*eG; antisense) [compound 281590]
Averages from two experiments
  % INHIB (inhibition of human apolipoprotein B mRNA levels): 84%

## 147825 (antisense eA*eG*eA*eA*eG*d[5mC]*dT*dG*d[5mC]*d[5mC]*dT*d[5mC]*dT*dT*d[5mC]*eT*eT*e[5mC]*e[5mC]*e[5mC]) [compound 147825]
[4]
  % INHIB: 72%

## 301210 (antisense e[5mC]*eT*eA*eT*eG*dG*d[5mC]*dT*dG*dA*dG*d[5mC]*dT*dT*dG*e[5mC]*e[5mC]*eT*eA*eT) [compound 301210]
[5]
  % INHIB: 33%

## 301170 (antisense eT*eT*e[5mC]*eA*eT*dA*dT*dG*dA*dA*dA*dT*d[5mC]*dT*d[5mC]*e[5mC]*eT*eA*e[5mC]*eT) [compound 301170]
[5]
  % INHIB: 40%

## 281636 (antisense eG*e[5mC]*eA*eA*eG*dA*dG*dT*d[5mC]*d[5mC]*dA*d[5mC]*d[5mC]*dA*dA*eT*e[5mC]*eA*eG*eA) [compound 281636]
Averages from two experiments
  % INHIB (inhibition of human apolipoprotein B mRNA levels): 68%

## 301022 (eG*eG*e[5mC]*eG*eG*dG*dT*d[5mC]*d[5mC]*dA*dT*d[5mC]*dG*d[5mC]*d[5mC]*eA*eG*e[5mC]*eT*eG; antisense) [compound 301022]
Averages from two experiments
  % INHIB (inhibition of human apolipoprotein B mRNA levels): 69%

## 147820 (antisense eG*eA*eA*e[5mC]*eA*d[5mC]*dA*dT*dA*dG*d[5mC]*d[5mC]*dG*dA*dA*eT*eG*e[5mC]*e[5mC]*eG) [compound 147820]
[4]
  % INHIB: 100%
Table 2, HepG2 cells, 50 nM
  Percent Inhibition 50 nM: 10%
Table 2, HepG2 cells, 150 nM
  Percent Inhibition 150 nM: 0%
Table 2, HepG2 cells, 250 nM
  Percent Inhibition 250 nM: 73%

## 281639 (antisense eG*eA*e[5mC]*eG*eT*d[5mC]*dA*dG*dA*dA*d[5mC]*d[5mC]*dT*dA*dT*eG*eA*eT*eG*eG) [compound 281639]
[3]
  % INHIB: 38%

## 301122 (e[5mC]*eT*eG*eA*eG*dA*dT*dT*dA*d[5mC]*d[5mC]*d[5mC]*dG*d[5mC]*dA*eG*eA*eA*eT*e[5mC]; antisense) [compound 301122]
[5]
  % INHIB: 32%

## 308647 (antisense GCCTCAGTCTGCTTCGCACC; 4-10-6 2'-MOE gapmer, phosphorothioate, chemistry not fully specified) [compound 308647]
[6]
  % INHIB 50 nm: 53%
[7]
  % INHIB 150 nm: 86%

## 301115 (antisense e[5mC]*eA*e[5mC]*eA*eA*dG*dA*dG*dT*dA*dA*dG*dG*dA*dG*e[5mC]*eA*eG*eA*eG) [compound 301115]
[5]
  % INHIB: 39%

## 301063 (eG*eT*e[5mC]*eA*e[5mC]*dA*dT*d[5mC]*d[5mC]*dG*dT*dG*d[5mC]*d[5mC]*dT*eG*eG*eT*eG*e[5mC]; antisense) [compound 301063]
[5]
  % INHIB: 41%

## 281623 (antisense e[5mC]*e[5mC]*e[5mC]*eA*eT*d[5mC]*d[5mC]*dA*dG*dA*d[5mC]*dT*dG*dA*dA*eT*eT*eT*eT*eG) [compound 281623]
Averages from two experiments
  % INHIB (inhibition of human apolipoprotein B mRNA levels): 59%

## 271022 (antisense eG*eA*eT*eA*eG*dA*dA*dT*dA*dT*dT*dG*d[5mC]*dT*d[5mC]*eT*eG*e[5mC]*eA*eA) [compound 271022]
Averages from two experiments
  % INHIB (inhibition of human apolipoprotein B mRNA levels): 100%

## 301183 (antisense eT*e[5mC]*eT*eG*eG*dG*d[5mC]*d[5mC]*dA*dG*dG*dA*dA*dG*dA*e[5mC]*eA*e[5mC]*eG*eA) [compound 301183]
[5]
  % INHIB: 68%

## 301051 (eG*eA*eT*eG*e[5mC]*d[5mC]*dT*dT*dA*d[5mC]*dT*dT*dG*dG*dA*e[5mC]*eA*eG*eA*e[5mC]; antisense) [compound 301051]
[5]
  % INHIB: 27%

## 308660 (antisense TGGTAGCCTCAGTCTGCTTC; 2-10-8 2'-MOE gapmer, phosphorothioate, chemistry not fully specified) [compound 308660]
[6]
  % INHIB 50 nm: 72%
[7]
  % INHIB 150 nm: 92%

## 301085 (antisense eT*eG*eG*eG*eA*d[5mC]*dT*dT*dA*d[5mC]*d[5mC]*dA*dT*dG*d[5mC]*e[5mC]*eT*eT*eT*eG) [compound 301085]
[5]
  % INHIB: 11%

## 308648 (antisense GCCTCAGTCTGCTTCGCGCC; 6-10-4 2'-MOE gapmer, phosphorothioate, chemistry not fully specified) [compound 308648]
Table 17 variable gap, HepG2 cells, 50 nM, averages from three experiments
  % INHIB 50 nm: 78%
Table 17 variable gap, HepG2 cells, 150 nM, averages from three experiments
  % INHIB 150 nm: 89%

## 301096 (antisense eA*eT*eA*e[5mC]*eT*dT*dA*dT*dT*d[5mC]*d[5mC]*dT*dG*dG*dT*eA*eA*e[5mC]*e[5mC]*eA) [compound 301096]
[5]
  % INHIB: 24%

## 271045 (eG*eT*e[5mC]*eA*eA*d[5mC]*dA*dG*dT*dT*d[5mC]*d[5mC]*dT*dG*dG*eT*eA*e[5mC]*eA*eG; antisense) [compound 271045]
Averages from two experiments
  % INHIB (inhibition of human apolipoprotein B mRNA levels): 19%

## 271014 (antisense e[5mC]*e[5mC]*e[5mC]*eA*eG*dA*dG*dA*dG*dG*d[5mC]*d[5mC]*dA*dA*dG*e[5mC]*eT*e[5mC]*eT*eG) [compound 271014]
Averages from two experiments
  % INHIB (inhibition of human apolipoprotein B mRNA levels): 54%

## 301160 (eA*e[5mC]*e[5mC]*eT*eT*dG*dT*dG*dT*dG*dT*d[5mC]*dT*d[5mC]*dA*e[5mC]*eT*e[5mC]*eA*eA; antisense) [compound 301160]
[5]
  % INHIB: 49%
